Experimental data taken from patent US6608082B1, “Treatment of erectile dysfunction using isoquinoline compound melanocortin receptor ligands” (Lion Bioscience AG, priority 1998, dated 2003).
Like-named read-outs stand apart in the source and are kept apart here.

Legend:
[1] = target: T1, MCR-4 (Homo sapiens, UniProt P32245); assay: Melanocortin receptor binding assay, competition with 125I-HP 467, HEK 293 cells expressing hMCR-4; conditions: for IC50: read-out: MC-4 IC50
T1 construct: expressed in transfected cells; host or cells: HEK 293
Summary of the method: (§1)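 Test compounds compete on intact HEK 293 cells carrying hMCR-1 (2×10^4 per tube) or hMCR-4 (4×10^3 per tube), suspended in PBS, 10% calf serum, 1 mM CaCl2.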

[2] = target: T2, MCR-1 (Homo sapiens, UniProt Q01726); assay: Melanocortin receptor binding assay, competition with 125I-HP 467, HEK 293 cells expressing hMCR-1; conditions: for IC50: read-out: MC-1 IC50; for % Disp. MC-1 10 μM: displacement of 125I-HP 467 at 10 μM isoquinoline compound
T2 construct: expressed in transfected cells; host or cells: HEK 293
Summary of the method: as §1

[3] = TRG 2414 library, inhibition of binding of 125I-HP 467, HEK 293 cells expressing MCR-4
[4] = TRG 2414 library, inhibition of binding of 125I-HP 467, HEK 293 cells expressing MCR-1
[5] = inhibition of binding of 125I-HP 467, HEK 293 cells expressing MCR-4, TRG 2414 library
[6] = inhibition of binding of 125I-HP 467, HEK 293 cells expressing MCR-1, TRG 2414 library
[7] = TRG 2406 and TRG 2407 libraries, inhibition of binding of 125I-HP 467
[8] = TRG 2408 and TRG 2409 libraries, inhibition of 125I-HP 467 binding
[9] = competition with 125I-HP 467, HEK 293 cells expressing MCR-4
[10] = competition with 125I-HP 467, HEK 293 cells expressing MCR-1
[11] = inhibition of binding of 125I-HP 467, HEK 293 cells expressing MCR-4
[12] = inhibition of binding of 125I-HP 467, HEK 293 cells expressing MCR-1

T2 sequence (Q01726 whole entry): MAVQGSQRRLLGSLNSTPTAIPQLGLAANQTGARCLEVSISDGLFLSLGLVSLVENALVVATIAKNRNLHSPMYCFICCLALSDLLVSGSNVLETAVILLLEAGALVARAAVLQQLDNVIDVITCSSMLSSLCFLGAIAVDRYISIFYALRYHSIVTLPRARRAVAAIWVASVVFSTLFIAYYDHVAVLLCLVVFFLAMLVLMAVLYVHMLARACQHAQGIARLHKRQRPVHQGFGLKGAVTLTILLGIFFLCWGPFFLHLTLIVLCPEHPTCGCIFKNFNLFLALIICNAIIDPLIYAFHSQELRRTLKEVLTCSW
T1 sequence (P32245 whole entry): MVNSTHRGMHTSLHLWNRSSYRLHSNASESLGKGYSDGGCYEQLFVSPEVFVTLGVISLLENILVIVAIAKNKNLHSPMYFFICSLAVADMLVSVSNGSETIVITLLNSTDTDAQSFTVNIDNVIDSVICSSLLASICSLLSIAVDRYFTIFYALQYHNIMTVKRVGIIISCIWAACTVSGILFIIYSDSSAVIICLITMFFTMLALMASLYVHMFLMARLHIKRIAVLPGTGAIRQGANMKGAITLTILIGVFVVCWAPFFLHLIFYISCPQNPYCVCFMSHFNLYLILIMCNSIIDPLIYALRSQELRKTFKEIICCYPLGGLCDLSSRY

Compound: COc1ccccc1CCNCC1c2ccccc2CN(CCCCC(CN)NCc2ccccc2)C1c1ccccc1Br (stereo not drawn) [Cmpd 211]
- IC50 [1, 3]: 4.21 µM
- IC50 [2, 4]: 3.56 µM

Compound: COc1ccc(CNCC2c3ccccc3CN(CCCCC(CN)NCC(C)c3ccc(CC(C)C)cc3)C2c2ccc(Oc3ccccc3)cc2)cc1 (stereo not drawn) [TRG 2414-144]
- MC-4 IC50 [1, 5]: no fit
- MC-1 IC50 [2, 6]: no fit

Compound: NCCN1Cc2ccccc2C(CNCc2ccccc2O)C1c1cccc(Oc2ccc(Cl)c(Cl)c2)c1 (stereo not drawn) [TRG 2406-2]
- IC50 [1, 7]: 3.86 µM
- IC50 [2, 7]: 7.86 µM

Compound: NCCNC(CN)CCCCN1Cc2ccccc2C(CNC2CCCCC2)C1c1ccc(Cl)cc1Cl (stereo not drawn) [TRG 2408-15]
- IC50 [1, 8]: 6.3 µM
- IC50 [2, 8]: 0.76 µM

Compound: COc1ccc(CNCC2c3ccccc3CN(CCCCC(N)CN)C2c2cc(C(F)(F)F)cc(C(F)(F)F)c2)cc1 (stereo not drawn) [TRG 2414-61]
- IC50 [1, 5]: 1.67 µM
- IC50 [2, 6]: 10.5 µM

Compound: CCCCNc1ccc(C2C(CN)c3ccccc3CN2CCCCC(CN)NCCN)cc1 (stereo not drawn) [TRG 2411-112]
- IC50 [1, 9]: 1.45 µM
- IC50 [2, 10]: 0.2 µM

Compound: CCOc1ccccc1CNCC1c2ccccc2CN(CCCCC(CN)NCC(C)c2ccc(CC(C)C)cc2)C1c1ccc(Oc2ccccc2)cc1 (mixture of isomers) [TRG 2414-128]
- MC-4 IC50 [1, 5]: no fit
- IC50 [2, 6]: 25 µM

Compound: CCNc1ccc(C2C(CNC3CCCCC3)c3ccccc3CN2CCCC[C@@H](CN)NCCc2ccccc2)cc1 (stereo partly drawn) [TRG 2408-6]
- IC50 [1, 8]: 7.16 µM
- IC50 [2, 8]: 0.61 µM

Compound: COc1ccc(CNCC2c3ccccc3CN(CCCCC(N)CN)C2c2ccccc2Br)cc1 (stereo not drawn) [Cmpd 221]
- IC50 [1, 3]: 1.83 µM
- IC50 [2, 4]: 6.61 µM

Compound: NCC(CCCCN1Cc2ccccc2C(CNC2CCCCCC2)C1c1ccc(Cl)cc1Cl)NCCc1ccccc1 (stereo not drawn) [TRG 2414-34]
- IC50 [1, 5]: 4.42 µM
- IC50 [2, 6]: 3.55 µM

Compound: NCC(N)CCCCN1Cc2ccccc2C(CNC2CCCCC2)C1c1ccccc1Br (stereo not drawn) [Cmpd 237]
- IC50 [1, 3]: 3.61 µM
- IC50 [2, 4]: 5.87 µM

Compound: CNC(CN)CCCCN1Cc2ccccc2C(CNc2cccc(O)c2)C1c1ccc(Cl)cc1Cl (stereo not drawn) [TRG 2407-7]
- MC-4 IC50 [1, 7]: no fit
- IC50 [2, 7]: 4.38 µM

Compound: CCCCNC(CN)CCCN1Cc2ccccc2C(CNC2CCCCC2)C1c1ccc(-c2ccccc2)cc1 (stereo not drawn) [TRG 2411-133]
- IC50 [1, 9]: 1.59 µM
- IC50 [2, 10]: 1.46 µM

Compound: CCNc1ccc(C2C(CNc3ccccc3OC)c3ccccc3CN2CCCCC(CN)NC)cc1 (stereo not drawn) [TRG 2407-44]
- IC50 [1, 7]: 10.4 µM
- IC50 [2, 7]: 1.15 µM

Compound: NCC(N)CCCCN1Cc2ccccc2C(CNCCc2cccc(Cl)c2)C1c1cccc(Oc2ccccc2)c1 (stereo not drawn) [TRG 2414-93]
- IC50 [1, 5]: 3.8 µM
- IC50 [2, 6]: 6.3 µM

Compound: CCNc1ccc(C2C(CNCCc3ccccc3)c3ccccc3CN2CCCC(CN)NCCCCCNC(C)C)cc1 (stereo not drawn) [TRG 2420-1]
- IC50 [1, 11]: 1.5 µM
- IC50 [2, 12]: 0.046 µM

Compound: CNC(CN)CCCCN1Cc2ccccc2C(CNCc2cccc(C(F)(F)F)c2)C1c1ccc(Cl)cc1Cl (stereo not drawn) [TRG 2407-17]
- IC50 [1, 7]: 9.22 µM
- IC50 [2, 7]: 10.1 µM

Compound: CCOc1ccc(CCNCC2c3ccccc3CN(CCCCC(CN)NCc3ccccc3)C2c2cc(C(F)(F)F)cc(C(F)(F)F)c2)cc1 (stereo not drawn) [TRG 2421-21]
- IC50 [1, 11]: 3.98 µM
- IC50 [2, 12]: 2.59 µM

Compound: CCNc1ccc(C2C(CNC3CCCCC3)c3ccccc3CN2CCCC(CN)NCc2ccccc2)cc1 (stereo not drawn) [TRG 2411-169]
- IC50 [1, 11]: 0.44 µM
- IC50 [2, 12]: 0.22 µM

Compound: CCNc1ccc(C2C(CNC3CCCCC3)c3ccccc3CN2CCCC(CN)NCC)cc1 (stereo not drawn) [TRG 2411-164]
- IC50 [1, 11]: 4.02 µM
- IC50 [2, 12]: 0.18 µM

Compound: COc1ccc(CCNCC2c3ccccc3CN(CCCCC(CN)NCCc3ccccc3)C2c2cc(C(F)(F)F)cc(C(F)(F)F)c2)cc1 (stereo not drawn) [TRG 2414-66]
- IC50 [1, 5]: 3.2 µM
- IC50 [2, 6]: 10.5 µM

Compound: CCNc1ccc(C2C(CN)c3ccccc3CN2CCCCC(CN)NCCc2ccccc2)cc1 (stereo not drawn) [TRG 2411-63]
- IC50 [1, 9]: 1.82 µM
- IC50 [2, 10]: 0.24 µM

Compound: CNCCNC(CN)CCCCN1Cc2ccccc2C(CN)C1c1ccc(-c2ccccc2)cc1 (stereo not drawn) [TRG 2411-26]
- IC50 [1, 9]: 6.17 µM
- effectiveness as MC receptor ligand ([2]; binding to MC receptors, Table 1): particularly effective MC receptor ligands
- IC50 [2, 10]: 0.09 µM

Compound: CCCOc1ccc(C2C(CNCc3ccccc3OCC)c3ccccc3CN2CCCCC(N)CN)cc1 (mixture of isomers) [TRG 2414-165]
- IC50 [1, 5]: 5.06 µM
- IC50 [2, 6]: 0.994 µM

Compound: CCOc1ccccc1CNCC1c2ccccc2CN(CCCCC(CN)NCc2ccccc2)C1c1cccc(Oc2ccccc2)c1 (stereo not drawn) [TRG 2414-87]
- IC50 [1, 5]: 11.2 µM
- IC50 [2, 6]: 6.65 µM

Compound: Cn1cccc1C1C(CNC2CCCCC2)c2ccccc2CN1CCN (stereo not drawn) [TRG 2405-4]
- IC50 ([1]; TRG 2405 section, inhibition of binding of 125I-HP 467, HEK 293 cells expressing MCR-4): 11.6 µM
- IC50 ([2]; TRG 2405 section, inhibition of binding of 125I-HP 467, HEK 293 cells expressing MCR-1): 2.17 µM
- % Disp. MC-1 10 μM ([2]; first of duplicate): 76.8%
- % Disp. MC-1 10 μM ([2]; second of duplicate): 77.7%

Compound: CCNc1ccc(C2C(CNC3CCCCC3)c3ccccc3CN2CCCC(CN)NCCc2ccc(Br)cc2)cc1 (stereo not drawn) [TRG 2411-167]
- IC50 [1, 11]: 1.11 µM
- IC50 [2, 12]: 0.37 µM

Compound: NCC(CCCCN1Cc2ccccc2C(CNCc2ccccc2)C1c1cccc(Oc2ccccc2)c1)NCCc1ccccc1 (stereo not drawn) [TRG 2414-110]
- IC50 [1, 5]: 10 µM
- IC50 [2, 6]: 11.1 µM

Compound: COc1ccc(CNCC2c3ccccc3CN(CCCCC(CN)NCC(C)c3ccc(CC(C)C)cc3)C2c2ccc(Cl)cc2Cl)cc1 (stereo not drawn) [TRG 2414-24]
- IC50 [1, 5]: 37.5 µM
- IC50 [2, 6]: 25.5 µM

Compound: NCC(CCCCN1Cc2ccccc2C(CNCCc2cccc(Cl)c2)C1c1cc(C(F)(F)F)cc(C(F)(F)F)c1)NCc1ccccc1 (stereo not drawn) [TRG 2414-55]
- IC50 [1, 5]: 3.12 µM
- IC50 [2, 6]: 12.5 µM

Compound: CCCCOc1ccc(C2C(CN)c3ccccc3CN2CCCCC(CN)NCC)cc1 (mixture of isomers) [TRG 2415-18]
- IC50 [1, 11]: 7.95 µM
- IC50 [2, 12]: 0.306 µM

Compound: CCCCNc1ccc(C2C(CNCCc3ccccc3)c3ccccc3CN2CCCCC(CN)NCCc2ccc(Br)cc2)cc1 (stereo not drawn) [TRG 2411-78]
- IC50 [1, 9]: 1.32 µM
- IC50 [2, 10]: 0.45 µM

Compound: NC[C@H](CCCCN1Cc2ccccc2C(CNCc2ccccc2C(F)(F)F)C1c1ccc(Oc2ccccc2)cc1)NCc1ccccc1 (stereo partly drawn) [TRG 2414-123]
- MC-4 IC50 [1, 5]: no fit
- IC50 [2, 6]: 17.6 µM

Compound: COc1ccc(CNCC2c3ccccc3CN(CCCCC(N)CN)C2c2ccc(Cl)cc2Cl)cc1 (stereo not drawn) [TRG 2414-21]
- IC50 [1, 5]: 1.57 µM
- IC50 [2, 6]: 1.12 µM

Compound: CCNc1ccc(C2C(CNCCc3ccccc3)c3ccccc3CN2CCCCC(CN)NCCc2ccccc2)cc1 (stereo not drawn) [TRG 2411-40]
- IC50 [1, 9]: 1 µM
- IC50 [2, 10]: 0.19 µM

Compound: CCCOc1ccc(C2C(CNCc3ccc(OC)cc3)c3ccccc3CN2CCCCC(CN)NCC(C)c2ccc(CC(C)C)cc2)cc1 (stereo not drawn) [TRG 2414-184]
- IC50 [1, 5]: 27.9 µM
- IC50 [2, 6]: 17 µM

Compound: CCNc1ccc(C2C(CNC3CCCCC3)c3ccccc3CN2CCC(CN)NCCNC)cc1 (stereo not drawn) [TRG 2408-94]
- IC50 [1, 8]: 27.1 µM
- IC50 [2, 8]: 3.89 µM

Compound: NCC(CCCCN1Cc2ccccc2C(CNCCc2ccc(O)cc2)C1c1cc(C(F)(F)F)cc(C(F)(F)F)c1)NCc1ccccc1 (stereo not drawn) [TRG 2421-6]
- IC50 [1, 11]: 0.76 µM
- IC50 [2, 12]: 2.25 µM

Compound: CNC(CN)CCCCN1Cc2ccccc2C(CN(C)C2CCCCC2)C1c1ccc(Cl)cc1Cl (stereo not drawn) [TRG 2407-30]
- IC50 [1, 7]: 2.1 µM
- IC50 [2, 7]: 3.15 µM

Compound: COc1ccc(CNCC2c3ccccc3CN(CCCCC(CN)NCc3ccccc3)C2c2cc(C(F)(F)F)cc(C(F)(F)F)c2)cc1 (stereo not drawn) [TRG 2414-63]
- IC50 [1, 5]: 5.34 µM
- IC50 [2, 6]: 14.5 µM

Compound: NCC(N)CCCCN1Cc2ccccc2C(CNC2CCCCC2)C1c1cc(C(F)(F)F)cc(C(F)(F)F)c1 (stereo not drawn) [TRG 2414-77]
- IC50 [1, 5]: 0.63 µM
- IC50 [2, 6]: 3.86 µM

Compound: COc1cccc(CNCC2c3ccccc3CN(CCCCC(CN)NCC(C)c3ccc(CC(C)C)cc3)C2c2ccccc2Br)c1 (stereo not drawn) [Cmpd 220]
- IC50 [1, 3]: 35.1 µM
- IC50 [2, 4]: 40.6 µM
